Measured values: ChEMBL document CHEMBL4706677, “Design, synthesis, and biological evaluation of 1,3,6,7-tetrahydroxyxanthone derivatives as phosphoglycerate mutase 1 inhibitors” (Bioorg Med Chem Lett, 2021)

What was measured:
[1] = test system: NCI-H1299; test: Antiproliferative activity against human NCI-H1299 cells assessed as inhibition of cell proliferation; format: functional, cell-based
[2] = target: Phosphoglycerate mutase 1 (Homo sapiens, UniProt P18669); test: Inhibition of PGAM1 (unknown origin)
Sequence of Phosphoglycerate mutase 1 (P18669 whole entry): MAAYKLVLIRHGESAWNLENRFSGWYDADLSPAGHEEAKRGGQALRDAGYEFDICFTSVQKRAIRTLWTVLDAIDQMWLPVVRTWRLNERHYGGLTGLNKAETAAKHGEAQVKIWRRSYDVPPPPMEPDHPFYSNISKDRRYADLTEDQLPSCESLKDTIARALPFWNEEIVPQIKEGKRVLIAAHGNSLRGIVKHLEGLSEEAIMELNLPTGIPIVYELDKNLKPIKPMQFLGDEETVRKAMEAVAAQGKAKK

Row | EC50 [1] [µM] | IC50 [2] [µM] | Compound
1 | 26.2 | – | O=C1c2ccccc2C(=O)c2c1cc(S(=O)(=O)Nc1ccc(C(F)(F)F)cc1)c(O)c2O
2 | – | > 20 | O=c1c2cc(O)c(O)cc2oc2cc(O)cc(OCCCCN3CCCCC3)c12
3 | 13.5 | 2.8 | CCCCC=CCc1c(O)c(O)cc2oc3cc(O)cc(O)c3c(=O)c12
4 | – | > 20 | COc1c(OCCN2CCN(C)CC2)cc2oc3cc(OCCN4CCN(C)CC4)c(CC=C(C)C)c(O)c3c(=O)c2c1CC=C(C)C
5 | – | > 20 | CCNC(=O)Oc1cc2oc3cc(OC(=O)NCC)c(OC)c(CC=C(C)C)c3c(=O)c2c(O)c1CC=C(C)C
6 | – | > 20 | COc1c(OC(=O)NC(C)C)cc2oc3cc(OC(=O)NC(C)C)c(CC=C(C)C)c(O)c3c(=O)c2c1CC=C(C)C
7 | – | > 20 | COc1c(OCCN(C)C)cc2oc3cc(OCCN(C)C)c(CC=C(C)C)c(O)c3c(=O)c2c1CC=C(C)C
8 | – | > 20 | O=C(CCCOc1cc(O)cc2oc3cc(O)c(O)cc3c(=O)c12)N1CCCCC1
9 | 3.4 | 2.8 | CCCCCCCCOc1cc(O)cc2oc3cc(O)c(O)cc3c(=O)c12
10 | 41.6 | 1.5 | O=c1c2c(O)cc(O)cc2oc2cc(O)c(O)c(CCCc3ccccc3)c12
11 | – | > 20 | COc1c(OCCO)cc2oc3cc(OCCO)c(CC=C(C)C)c(O)c3c(=O)c2c1CC=C(C)C
12 | – | > 20 | COc1cc(O)c2c(=O)c3c(CCCc4ccccc4)c(O)c(OC)cc3oc2c1
13 | 60 | 12.8 | CCCCOc1cc(O)cc2oc3cc(O)c(O)cc3c(=O)c12
14 | – | 20 | CCCc1c(O)c(O)cc2oc3cc(O)cc(O)c3c(=O)c12
15 | 28.1 | 5.7 | O=c1c2cc(O)c(O)cc2oc2cc(O)cc(OCCCCN3CCc4ccccc43)c12
16 | – | > 20 | COc1c(OCC(=O)N(C)C)cc2oc3cc(OCC(=O)N(C)C)c(CC=C(C)C)c(O)c3c(=O)c2c1CC=C(C)C
17 | 47.7 | 3.4 | CC(C)=CCc1c(O)c(O)cc2oc3cc(O)cc(O)c3c(=O)c12
18 | – | 7.2 | COc1c(O)cc2oc3cc(O)c(CC=C(C)C)c(O)c3c(=O)c2c1CC=C(C)C [MANGOSTIN]

Row | Compound | EC50 [1] [µM] | IC50 [2] [µM]
19 | CC(C)=CCc1c(O)cc2oc3cc(O)c(O)c(CC=C(C)C)c3c(=O)c2c1O | 2.2 | 1.9
20 | O=c1c2ccccc2oc2ccccc12 [XANTHONE] | – | 0.5
